Counter-ions that a name gives are not always drawn.
Tests used:
[1] = Determination of the microsomal half-life, rat liver microsomes; conditions: rat, liver microsomes, pH 7.4
PDE10A (human) = target: T1, PDE10A (human) (Homo sapiens, UniProt Q9Y233); test: Measurement of PDE activity (HTRF cAMP kit), human PDE10A; type: biochemical; conditions: PDE enzymatic reaction, substrate 20 nM for PDE10, 60 minutes at 29 C
T1 construct: purchased BPS Bioscience
Procedure, shortened: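 HTRF detection of cAMP left after hydrolysis, expressed as percent of uninhibited control to derive IC50. Reaction: serially diluted inhibitor mixed with recombinant enzyme, started with 20 nM cAMP, 60 min at 29 °C in Tris-HCl pH 7.5 buffer containing MgCl2 and BSA.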

[2] = Determination of the microsomal half-life, human liver microsomes; conditions: human, liver microsomes, pH 7.4

T1 sequence (Q9Y233 whole entry): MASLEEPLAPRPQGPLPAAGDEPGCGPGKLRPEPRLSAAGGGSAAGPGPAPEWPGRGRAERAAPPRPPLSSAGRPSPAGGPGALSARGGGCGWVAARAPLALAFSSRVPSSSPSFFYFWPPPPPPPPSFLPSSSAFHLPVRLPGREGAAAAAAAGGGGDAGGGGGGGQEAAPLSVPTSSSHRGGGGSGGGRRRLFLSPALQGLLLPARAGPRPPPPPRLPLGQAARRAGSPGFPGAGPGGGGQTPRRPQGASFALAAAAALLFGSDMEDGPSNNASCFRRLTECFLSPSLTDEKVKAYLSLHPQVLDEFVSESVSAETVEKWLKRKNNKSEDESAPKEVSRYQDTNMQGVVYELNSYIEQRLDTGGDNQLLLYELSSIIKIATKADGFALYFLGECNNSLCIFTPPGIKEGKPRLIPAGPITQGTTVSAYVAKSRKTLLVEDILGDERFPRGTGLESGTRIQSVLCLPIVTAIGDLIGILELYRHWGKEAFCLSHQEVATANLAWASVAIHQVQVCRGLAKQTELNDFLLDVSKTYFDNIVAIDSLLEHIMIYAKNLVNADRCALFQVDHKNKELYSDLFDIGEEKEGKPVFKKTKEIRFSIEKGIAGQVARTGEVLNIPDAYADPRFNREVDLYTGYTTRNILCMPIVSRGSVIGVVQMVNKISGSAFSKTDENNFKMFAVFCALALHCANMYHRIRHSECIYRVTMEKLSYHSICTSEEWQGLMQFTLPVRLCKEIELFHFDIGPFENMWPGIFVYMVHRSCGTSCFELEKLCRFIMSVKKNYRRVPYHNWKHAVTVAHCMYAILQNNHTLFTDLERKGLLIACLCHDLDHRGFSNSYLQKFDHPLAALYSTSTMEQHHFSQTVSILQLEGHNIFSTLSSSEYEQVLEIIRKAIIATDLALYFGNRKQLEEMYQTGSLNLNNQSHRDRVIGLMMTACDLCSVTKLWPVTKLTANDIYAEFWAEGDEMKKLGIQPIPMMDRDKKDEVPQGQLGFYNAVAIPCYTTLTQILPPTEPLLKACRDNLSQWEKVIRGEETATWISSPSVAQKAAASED

SMILES | microsomal CLint at 0.5 μM [1] | IC50 (PDE10A (human)) | microsomal CLint at 0.5 μM [2]
O=C1c2c(N3CCOCC3)ccnc2CN1CCc1ccccn1 [compound 550, 4-Morpholino-6-[2-(2-pyridyl)ethyl]-7H-pyrrolo[3,4-b]pyridin-5-one] | < 100 µL/min/mg | 200 to 500 nM | < 100 µL/min/mg
O=C1c2c(cccc2N2CCOCC2)CN1CCc1ccc2cc(F)ccc2n1 [Example 115, 2-[2-(6-Fluoro-quinolin-2-yl)-ethyl]-7-morpholin-4-yl-2,3-dihydro-isoindol-1-one trifluoroacetate] | < 100 µL/min/mg | < 100 nM | 100 to 220 µL/min/mg
Nc1ncc2cc(-c3cccc4c3C(=O)N(CCc3ccc5ccccc5n3)C4)ccc2n1 [Example 12, 7-(2-Amino-quinazolin-6-yl)-2-(2-quinolin-2-yl-ethyl)-2,3-dihydro-isoindol-1-one] | 100 to 220 µL/min/mg | < 100 nM | 100 to 220 µL/min/mg
Cn1nccc1-c1cccc2c1CN(CCc1ccc3ccccc3n1)C2=O [Example 202, 4-(2-Methyl-2H-pyrazol-3-yl)-2-(2-quinolin-2-yl-ethyl)-2,3-dihydro-isoindol-1-one trifluoroacetate] | > 220 µL/min/mg | < 100 nM | 100 to 220 µL/min/mg
Cc1ccnc(CCN2Cc3nccc(N4CCOCC4)c3C2=O)c1 [compound 521, 6-[2-(4-Methyl-2-pyridyl)ethyl]-4-morpholino-7H-pyrrolo[3,4-b]pyridin-5-one] | < 100 µL/min/mg | 200 to 500 nM | < 100 µL/min/mg
O=C1c2c(N3CCOCC3)ccnc2CN1CCc1nc(C2CC2)cs1 [compound 518, 6-[2-(4-Cyclopropylthiazol-2-yl)ethyl]-4-morpholino-7H-pyrrolo[3,4-b]pyridin-5-one] | 100 to 220 µL/min/mg | < 100 nM | < 100 µL/min/mg
[2H]c1nc2c(c(N3CCOCC3)c1[2H])C(=O)N(CC([2H])([2H])c1nc3c([2H])c([2H])c([2H])c([2H])c3c([2H])c1[2H])C2([2H])[2H] [compound 513, 2,3,7,7-Tetradeuterio-6-[2,2-dideuterio-2-(3,4,5,6,7,8-hexadeuterio-2-quinolyl)ethyl]-4-morpholino-pyrrolo[3,4-b]pyridin-5-one] | > 220 µL/min/mg | < 100 nM | 100 to 220 µL/min/mg
O=C1c2c(cccc2-c2ccc3[nH]cnc(=O)c3c2)CN1CCc1ccc2ccccc2n1 [Example 7, 6-[3-oxo-2-(2-quinolin-2-yl-ethyl)-2,3-dihydro-1H-isoindol-4-yl]-1H-quinazolin-4-one trifluoroacetate] | 100 to 220 µL/min/mg | 200 to 500 nM | 100 to 220 µL/min/mg
COc1ccc(-c2cccc3c2C(=O)N(CCc2ccc4ccccc4n2)C3)cn1 [Example 54, 7-(6-Methoxy-pyridin-3-yl)-2-(2-quinolin-2-yl-ethyl)-2,3-dihydro-isoindol-1-one] | 100 to 220 µL/min/mg | < 100 nM | 100 to 220 µL/min/mg
Cn1c(CCN2Cc3cccc(N4CCOCC4)c3C2=O)nc2ccccc21 [Example 153, 2-[2-(1-Methyl-1H-benzoimidazol-2-yl)-ethyl]-7-morpholin-4-yl-2,3-dihydro-isoindol-1-one] | < 100 µL/min/mg | < 100 nM | < 100 µL/min/mg
Cc1ccc(CCN2Cc3nccc(N4CCOCC4)c3C2=O)nc1 [compound 551, 6-[2-(5-Methyl-2-pyridyl)ethyl]-4-morpholino-7H-pyrrolo[3,4-b]pyridin-5-one] | < 100 µL/min/mg | < 100 nM | < 100 µL/min/mg
O=C1c2c(cccc2-c2ccc3nc[nH]c3c2)CN1CCc1ccc2ccccc2n1 [Example 11, 7-(3H-Benzoimidazol-5-yl)-2-(2-quinolin-2-yl-ethyl)-2,3-dihydro-isoindol-1-one trifluoroacetate] | < 100 µL/min/mg | < 100 nM | < 100 µL/min/mg

Other lines, results leading:

microsomal CLint at 0.5 μM [1] | IC50 (PDE10A (human)) | microsomal CLint at 0.5 μM [2] | SMILES
100 to 220 µL/min/mg | < 100 nM | 100 to 220 µL/min/mg | O=C1c2c(-c3ccncc3)ccnc2CN1CCc1ccc2sccc2n1 [compound 472, 4-(4-Pyridyl)-6-(2-thieno[3,2-b]pyridin-5-ylethyl)-7H-pyrrolo[3,4-b]pyridin-5-one]
100 to 220 µL/min/mg | < 100 nM | < 100 µL/min/mg | O=C1c2c(-c3cn[nH]c3)ccnc2CN1CCc1cn2ccccc2n1 [Example 365, 6-(2-Imidazo[1,2-a]pyridin-2-yl-ethyl)-4-(1H-pyrazol-4-yl)-6,7-dihydro-pyrrolo[3,4-b]pyridin-5-one]
< 100 µL/min/mg | < 100 nM | < 100 µL/min/mg | O=C1c2c(-c3cc[nH]n3)ccnc2CN1CCc1cn2ccccc2n1 [compound 413, 6-(2-Imidazo[1,2-a]pyridin-2-yl-ethyl)-4-(1H-pyrazol-3-yl)-6,7-dihydro-pyrrolo[3,4-b]pyridin-5-one]
100 to 220 µL/min/mg | < 100 nM | < 100 µL/min/mg | O=C1c2c(N3CCC(CF)C3)ccnc2CN1CCc1cn2ccccc2n1 (stereo not drawn) [compound 384, 4-[3-(Fluoromethyl)pyrrolidin-1-yl]-6-(2-imidazo[1,2-a]pyridin-2-ylethyl)-7H-pyrrolo[3,4-b]pyridin-5-one]
> 220 µL/min/mg | 100 to 200 nM | 100 to 220 µL/min/mg | O=C1c2c(-c3ccc(F)cc3)ccc(F)c2CN1CCc1cn2ccccc2n1 [Example 379, 4-Fluoro-7-(4-fluoro-phenyl)-2-(2-imidazol[1,2-a]pyridin-2-yl-ethyl)-2,3-dihydro-isoindol-1-one]
< 100 µL/min/mg | 200 to 500 nM | < 100 µL/min/mg | O=C1c2c(-c3cscn3)ccnc2CN1CCc1nc2ccccc2s1 [compound 436, 6-[2-(1,3-Benzothiazol-2-yl)ethyl]-4-thiazol-4-yl-7H-pyrrolo[3,4-b]pyridin-5-one]
100 to 220 µL/min/mg | < 100 nM | < 100 µL/min/mg | O=C1c2c(N3CCC(O)CC3)ccnc2CN1CCc1ccc2ccccc2n1 [compound 530, 4-(4-Hydroxy-piperidin-1-yl)-6-(2-quinolin-2-yl-ethyl)-6,7-dihydro-pyrrolo[3,4-b]pyridin-5-one trifluoroacetate]
100 to 220 µL/min/mg | < 100 nM | < 100 µL/min/mg | O=C1c2c(-c3cn[nH]c3)ccnc2CN1CCc1nc2ccccc2s1 [compound 538, 6-[2-(1,3-Benzothiazol-2-yl)ethyl]-4-(1H-pyrazol-4-yl)-7H-pyrrolo[3,4-b]pyridin-5-one trifluoroacetate]
< 100 µL/min/mg | < 100 nM | < 100 µL/min/mg | O=C1c2c(-c3ccncc3F)ccnc2CN1CCc1cn2ccccc2n1 [compound 534, 4-(3-Fluoro-pyridin-4-yl)-6-(2-imidazo[1,2-a]pyridin-2-yl-ethyl)-6,7-dihydro-pyrrolo[3,4-b]pyridin-5-one]
> 220 µL/min/mg | < 100 nM | 100 to 220 µL/min/mg | CC(C)c1ccc(CCN2Cc3nccc(-c4ccncc4)c3C2=O)nc1 [compound 398, 6-[2-(5-Isopropyl-2-pyridyl)ethyl]-4-(4-pyridyl)-7H-pyrrolo[3,4-b]pyridin-5-one]
< 100 µL/min/mg | 100 to 200 nM | < 100 µL/min/mg | O=C1c2c(cccc2-c2ccc3nc[nH]c3c2)CN1CCc1cn2ccccc2n1 [Example 244, 7-(3H-Benzoimidazol-5-yl)-2-(2-imidazol[1,2-a]pyridin-2-yl-ethyl)-2,3-dihydro-isoindol-1-one]
< 100 µL/min/mg | < 100 nM | < 100 µL/min/mg | O=C1c2c(OCF)ccc(-c3cncnc3)c2C(=O)N1CCc1cn2ccccc2n1 [compound 545, 4-(Fluoromethoxy)-2-(2-imidazo[1,2-a]pyridin-2-ylethyl)-7-pyrimidin-5-yl-isoindoline-1,3-dione]
< 100 µL/min/mg | < 100 nM | < 100 µL/min/mg | Cc1cccn2cc(CCN3Cc4nccc(-c5ccncc5)c4C3=O)nc12 [compound 496, 6-[2-(8-Methylimidazo[1,2-a]pyridin-2-yl)ethyl]-4-(4-pyridyl)-7H-pyrrolo[3,4-b]pyridin-5-one trifluoroacetate]
100 to 220 µL/min/mg | 100 to 200 nM | 100 to 220 µL/min/mg | Cc1ccc(CCN2Cc3nccc(-c4ccncc4)c3C2=O)nc1C [compound 474, 6-[2-(5,6-Dimethyl-2-pyridyl)ethyl]-4-(4-pyridyl)-7H-pyrrolo[3,4-b]pyridin-5-one trifluoroacetate]
< 100 µL/min/mg | < 100 nM | < 100 µL/min/mg | COc1ccc(N2CCOCC2)c2c1CN(CCc1cn3ccccc3n1)C2=O [Example 264, 2-(2-Imidazo[1,2-a]pyridin-2-yl-ethyl)-4-methoxy-7-morpholin-4-yl-2,3-dihydro-isoindol-1-one trifluoroacetate]
< 100 µL/min/mg | < 100 nM | < 100 µL/min/mg | O=C1c2c(N3CCNCC3)ccnc2CN1CCc1ccc2ccccc2n1 [Example 163, 4-piperazin-1-yl-6-(2-quinolin-2-yl-ethyl)-6,7-dihydro-pyrrolo[3,4-b]pyridin-5-one]
< 100 µL/min/mg | 100 to 200 nM | < 100 µL/min/mg | O=C1c2cccc(N3CCOCC3)c2CN1CCc1cn2ccccc2n1 [Example 308, 2-(2-Imidazo[1,2-a]pyridin-2-yl-ethyl)-4-morpholin-4-yl-2,3-dihydro-isoindol-1-one]
100 to 220 µL/min/mg | < 100 nM | 100 to 220 µL/min/mg | COc1ccc(-c2ccc(OC)c3c2CN(CCc2cn4ccccc4n2)C3=O)cc1 [compound 457, 2-(2-Imidazo[1,2-a]pyridin-2-yl-ethyl)-7-methoxy-4-(4-methoxy-phenyl)-2,3-dihydro-isoindol-1-one trifluoroacetate]

From US9938269B2, “Inhibitor compounds of phosphodiesterase type 10A” (ABBVIE INC., priority 2011, dated 2018)
